The text below walks through data of patent US20140274971A1, “Systems and Methods of Using Chemically Bound Antibiotics Activated by Infections” (Osteoceramics, Inc., priority 2013, published 2014).

SMILES strings stand for the structures. Where two headings read alike, the source gives them in different places.

For assay [1], the system named is staphylococcus aureus. Put plainly: Repeated Kirby-Bauer test, ciprofloxacin-doped cement (Example 4). In kind it is cell-based. From the text:
A Kirby-Bauer test using staphylococcus aureus was repeated for ciprofloxacin-doped cement with more detail. All specimens, and the paper control, were 6 mm diameter.

The test system of assay [2] is Staph. A. The class given is cell-based, Staphylococcus aureus. From the text: (§1) The setting solution is aqueous calcium chloride.
Assay [3] has as its system E. Coli.
Assay [4] deals with Pseudo. A. The class given is cell-based, Psuedomonus aeruginosa.
Description: as §1

Assay [5] concerns selected bacterium. In kind it is cell-based. Conditions: for effectiveness of other tetracyclines (in words): other experiments, bound to implant. From the text: They were rinsed with deionized water and dried. […] The solutions were saved for bioactivity testing.
The test system of assay [6] is bacterial growth. As to the kind of experiment: Mueller-Hinton agar cultures of concretes made of tetracycline-treated grains. In kind it is cell-based. The note with it: concretes of treated grains with gypsum, calcium aluminate or zinc phosphate cement; cured 24 hours. As to the method:
These were separated into sizes with sieves, to produce a range of size fractions; 12-20 mesh, 20-35 mesh, 35-65 mesh, 65-270 mesh, and minus 325 mesh. […] The tetracycline bonds to the tricalcium component of the grain surfaces. […] So the tricalcium phosphate phase is interconnected throughout the volume and is exposed at 50% of the surface area. […] The surface area was calculated assuming the particles were spheres of the median radius for the sieve fraction. […] The grains changed from white to orange as a result of the treatment. These grains were used to make cements for filling bone voids, combining 65% of one fraction with 15% of the second, finer, fraction in the series, 5% of the −325 mesh fraction and 15% of cement. Different cements were used, including gypsum, calcium aluminate and zinc phosphate cements. These concretes set in 5 to 10 minutes in a wet environment. After curing 24 hours at 100% humidity and 37° C., disks of these concretes were tested in Mueller-Hinton agar cultures to determine if they would inhibit bacterial growth. […] Thus the concrete prostheses have the properties needed to treat bone voids. Note that the size of the coarse fraction 12-20, […] or 35-65 will depend on the maximum particle size that must not exceed the maximum size of the void to be filled.

Assay [7] deals with Corynebacterium spp. As to the kind of experiment: Kirby-Bauer method, tetracycline treated disks, periodontal bacteria. The class given is cell-based. The note with it: disks treated with 0.1 mg/ml, 1 mg/ml and 10 mg/ml; 10^4 to 10^6 levels. From the text: (§2) Because tooth roots are in an anaerobic environment, bacteria were selected from those commonly encountered in periodontal disease for evaluation by the Kirby-Bauer method. They were ATCCJ177i: Bacillus cereus, Corynebacterium spp., Esccherichia coli, Pasteurella multocida and Staphylococcus spp. Each was doped on Mueller-Hinton agar at 10^4 to 10^6 levels.

In assay [8] the test system is Bacillus cereus. Described as above. The class given is cell-based. The note with it: disks treated with 0.1 mg/ml, 1 mg/ml and 10 mg/ml; 10^4 to 10^6 levels.
Description: as §2

Assay [9] relates to Staphylococcus spp. Described as above. The class given is cell-based. Conditions: disks treated with 0.1 mg/ml, 1 mg/ml and 10 mg/ml; 10^4 to 10^6 levels.
Description: as §2

Assay [10] concerns Pasteurella multocida. The description is as above. In kind it is cell-based. Conditions: disks treated with 0.1 mg/ml, 1 mg/ml and 10 mg/ml; 10^4 to 10^6 levels.
Description: as §2

Assay [11] relates to Esccherichia coli. The description is as above. The class given is cell-based. The note with it: disks treated with 0.1 mg/ml, 1 mg/ml and 10 mg/ml; 10^4 to 10^6 levels.
Description: as §2

[12] abbreviates: 10^−2 gr/gram of calcium aluminate, 1 Day.
The mark [13] stands for this setting: 10^−2 gr/gram of calcium aluminate, 1 Hour.
[14] abbreviates: 10^−2 gr/gram of calcium aluminate, 1 Week.
Where [15] appears, read: 10^−2 grams ciprofloxacin per gram of calcium aluminate, one week.
The mark [16] stands for this setting: 10^−3 gr/gram of calcium aluminate, 1 Day.
The mark [17] stands for this setting: 10^−3 gr/gram of calcium aluminate, 1 Hour.
[18] abbreviates: 10^−3 gr/gram of calcium aluminate, 1 Week.
[19] abbreviates: 10^−4 gr/gram of calcium aluminate, 1 Day.
Where [20] appears, read: 10^−4 gr/gram of calcium aluminate, 1 Hour.
Where [21] appears, read: 10^−4 gr/gram of calcium aluminate, 1 Week.

Take `O=C(O)c1cn(C2CC2)c2cc(N3CCNCC3)c(F)cc2c1=O` [ciprofloxacin, Ciprofloxacin]: the “zone compared with control disk (in words)” value in [1] (10^−2 g/g concentration) was “equivalent to the control disk”; in assay [1] (10^−3 g/g), “somewhat less”. Moreover, the “effect of rinsing the pellet to remove surface antibiotic” value in assay [1] (rinsed vs not rinsed) is “had no effect”. The “Kirby-Bauer Inhibition Zone” value in [2] (setting [12]) was 29 mm; in [2] (setting [13]), 34 mm; in assay [2] (setting [14]) it was 32 mm; in assay [2] (setting [16]) it was 5 mm; in assay [2] (setting [17]), 27 mm; in assay [2] (setting [18]) it was 21 mm. For the same molecule, the “Kirby-Bauer Inhibition Zone” value in assay [2] (setting [19]) stood at 0 mm; in assay [2] (setting [20]) it was 7 mm; in assay [2] (setting [21]), 0 mm; in assay [3] (setting [12]) it was 37 mm; in assay [3] (setting [13]), 49 mm; in assay [3] (setting [14]), 44 mm. Further, the “Kirby-Bauer Inhibition Zone” value in assay [3] (setting [16]) was 27 mm; in [3] (setting [17]), 42 mm; in assay [3] (setting [18]), 33 mm; in assay [3] (setting [19]), 22 mm; in assay [3] (10^−4 gr/gram of calcium aluminate, 1 Hour after setting, saline 37° C.), 34 mm; in assay [3] (setting [21]), 23 mm. Moreover, the “Kirby-Bauer Inhibition Zone” value in assay [4] (setting [12]) worked out at 35 mm; in [4] (setting [13]) it was 44 mm; in assay [4] (setting [14]), 39 mm; in assay [4] (setting [16]), 19 mm; in [4] (setting [17]), 34 mm; in assay [4] (setting [18]), 21 mm. Besides, the entries for the “Kirby-Bauer Inhibition Zone” value in assay [4] (setting [19]), in [4] (setting [20]) and in assay [4] (setting [21]) were 0 mm, 21 mm and 0 mm, respectively. Also, the “inhibition (in words)” value in [2] (setting [15]), in [3] (setting [15]) and in [4] (setting [15]) was “effective for one week” throughout.
As for `CN(C)[C@@H]1C(O)=C(C(N)=O)C(=O)[C@@]2(O)C(O)=C3C(=O)c4c(O)ccc(Cl)c4[C@@H](O)[C@H]3C[C@@H]12` [democlotetracycline], the “effectiveness of other tetracyclines (in words)” value in assay [5] is given as “effective”.
Consider `CN(C)[C@@H]1C(O)=C(C(N)=O)C(=O)[C@@]2(O)C(O)=C3C(=O)c4c(O)cccc4[C@@](C)(O)[C@H]3[C@H](O)[C@@H]12` [oxytetracycline], for which the “effectiveness of other tetracyclines (in words)” value in assay [5] is reported as “effective”.
`CN(C)[C@@H]1C(=O)C(C(N)=O)=C(O)[C@@]2(O)C(=O)C3=C(O)c4c(O)cccc4[C@@](C)(O)[C@H]3C[C@@H]12` [tetracycline, Tetracycline]: the “inhibition zones (in words)” value in assay [5] (disks made with concentrations of 1 and 10 mg/ml) was “effective in creating large inhibition zones”. The “inhibition of bacterial growth by concrete disks (in words)” value in assay [6] is “perform in the same way as the disks in example one”. For the same molecule, the “bacterial growth adjacent to the disks (in words)” value in assay [7], in assay [8], in assay [9], in assay [10] and in [11] was “prevented” throughout.
